Laboratory results as given in PubChem BioAssay (NCI).
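48-hour exposure; five concentrations; linearly interpolated endpoints. TGI: concentration producing complete growth inhibition.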

Legend:
Experiment in all cases: inhibition of tumour cell growth, NCI panel, 48 h
SF-295 CNS = tested on: SF-295 CNS
MDA-MB-435 = tested on: MDA-MB-435
TK-10 renal = tested on: TK-10 renal
EKVX NSCLC = tested on: EKVX NSCLC
PC-3 prostate = tested on: PC-3 prostate
M14 melanoma = tested on: M14 melanoma
UO-31 renal = tested on: UO-31 renal
CCRF-CEM leukemia = tested on: CCRF-CEM leukemia
RPMI-8226 leukemia = tested on: RPMI-8226 leukemia
K-562 leukemia = tested on: K-562 leukemia
SNB-19 CNS = tested on: SNB-19 CNS
HL-60(TB) leukemia = tested on: HL-60(TB) leukemia
NCI/ADR-RES ovarian = tested on: NCI/ADR-RES ovarian
UACC-257 melanoma = tested on: UACC-257 melanoma
SN12C renal = tested on: SN12C renal
T-47D breast = tested on: T-47D breast
HOP-62 NSCLC = tested on: HOP-62 NSCLC
SK-OV-3 ovarian = tested on: SK-OV-3 ovarian
SNB-75 CNS = tested on: SNB-75 CNS
HCT-116 colon = tested on: HCT-116 colon
SK-MEL-5 melanoma = tested on: SK-MEL-5 melanoma
NCI-H522 lung = tested on: NCI-H522 lung
HS 578T breast = tested on: HS 578T breast
A549 NSCLC = tested on: A549 NSCLC
OVCAR-5 ovarian = tested on: OVCAR-5 ovarian
HCT-15 colon = tested on: HCT-15 colon
MDA-N = tested on: MDA-N
HCC-2998 colon = tested on: HCC-2998 colon
MOLT-4 leukemia = tested on: MOLT-4 leukemia
ACHN renal = tested on: ACHN renal
786-0 renal = tested on: 786-0 renal
SR leukemia = tested on: SR leukemia
SF-268 CNS = tested on: SF-268 CNS
MDA-MB-231 breast = tested on: MDA-MB-231 breast
IGROV1 ovarian = tested on: IGROV1 ovarian
SW-620 colon = tested on: SW-620 colon
OVCAR-4 ovarian = tested on: OVCAR-4 ovarian
MCF7 breast = tested on: MCF7 breast
KM12 colon = tested on: KM12 colon
SF-539 CNS = tested on: SF-539 CNS
HT29 colon = tested on: HT29 colon
SK-MEL-28 melanoma = tested on: SK-MEL-28 melanoma
U251 CNS = tested on: U251 CNS
OVCAR-8 ovarian = tested on: OVCAR-8 ovarian
COLO 205 colon = tested on: COLO 205 colon
NCI-H460 lung = tested on: NCI-H460 lung
DU-145 prostate = tested on: DU-145 prostate
LOX IMVI melanoma = tested on: LOX IMVI melanoma
HOP-92 NSCLC = tested on: HOP-92 NSCLC
A498 renal = tested on: A498 renal
OVCAR-3 ovarian = tested on: OVCAR-3 ovarian
MALME-3M melanoma = tested on: MALME-3M melanoma
SK-MEL-2 melanoma = tested on: SK-MEL-2 melanoma
CAKI-1 renal = tested on: CAKI-1 renal
NCI-H226 lung = tested on: NCI-H226 lung
UACC-62 melanoma = tested on: UACC-62 melanoma
RXF 393 renal = tested on: RXF 393 renal
NCI-H23 lung = tested on: NCI-H23 lung
BT-549 breast = tested on: BT-549 breast

Measured: TGI

Cn1c(-c2ccc(/C=N/N=C/c3ccc(-c4c[n+]5ccccc5n4C)cc3)cc2)c[n+]2ccccc12
not listed: DU-145 prostate | LOX IMVI melanoma | HOP-92 NSCLC | A498 renal | OVCAR-3 ovarian | MALME-3M melanoma | SK-MEL-2 melanoma | CAKI-1 renal | NCI-H226 lung | UACC-62 melanoma | RXF 393 renal | NCI-H23 lung | BT-549 breast
> 100 µM: all other assays above

CCCCCC(/C=N/Nc1ccccc1)C(O)(C(F)(F)F)C(F)(F)F (stereo not given)
not listed: TK-10 renal | MCF7 breast | KM12 colon | BT-549 breast
> 100 µM: all other assays above

CC(=O)OC1C[C@@H](C)C2(C[C@H](O)c3ccoc3)C(=O)OC[C@]13C2CCC(O)C31CO1 (stereo not given in full)
not listed: EKVX NSCLC | HL-60(TB) leukemia | T-47D breast | SK-OV-3 ovarian | SW-620 colon
> 100 µM: all other assays above
